Results published in ChEMBL document CHEMBL4118115, “Synthetic analogues of durantoside I from Citharexylum spinosum L. and their cytotoxic activity” (Bioorg Med Chem Lett, 2018).

Columns and labels:
A549 = test: Cytotoxicity against human A549 cells assessed as reduction in cell viability by Sulforhodamine B assay; type: functional, cell-based
HEK293 = test: Cytotoxicity against HEK293 cells assessed as reduction in cell viability by Sulforhodamine B assay; type: cell-based; settings: Homo sapiens
MCF7 = test: Cytotoxicity against human MCF7 cells assessed as reduction in cell viability by Sulforhodamine B assay; type: functional, cell-based
[1] = Cytotoxicity against rat ASK cells assessed as reduction in cell viability by Sulforhodamine B assay; type: functional, cell-based
KB = test: Cytotoxicity against human KB cells assessed as reduction in cell viability by Sulforhodamine B assay; type: functional, cell-based
P388 = test: Cytotoxicity against mouse P388 cells assessed as reduction in cell viability by Sulforhodamine B assay; type: functional, cell-based
HT-29 = test: Cytotoxicity against human HT-29 cells assessed as reduction in cell viability by Sulforhodamine B assay; type: functional, cell-based

With `COC(=O)C1=CO[C@@H](O[C@H]2O[C@@H](CO)[C@H](O)[C@@H](O)[C@@H]2O)[C@@H]2[C@@](C)(O)[C@@H](OC(=O)/C=C/c3ccccc3)C[C@]12O` the IC50 (A549) was > 50 µM, the IC50 (HEK293) was > 50 µM and the IC50 (MCF7) was > 50 µM. The IC50 [1] was > 50 µM, the IC50 (KB) was > 50 µM and the IC50 (P388) was > 50 µM. The IC50 (HT-29) was > 50 µM.
In the case of `COC(=O)C1=CO[C@@H](O[C@H]2O[C@@H](CO[Si](C)(C)C(C)(C)C)[C@H](OC(C)=O)[C@@H](OC(C)=O)[C@@H]2OC(C)=O)[C@@H]2[C@@](C)(O)[C@@H](OC(=O)/C=C/c3ccccc3)C[C@]12O`, the IC50 (A549) is reported as > 50 µM, the IC50 (HEK293) is reported as 31.8 µM and the IC50 (MCF7) is reported as 43.3 µM. The IC50 [1] was > 50 µM, the IC50 (KB) was > 50 µM and the IC50 (P388) was 3.11 µM. The IC50 (HT-29) was > 50 µM.
For `COC(=O)C1=CO[C@@H](O[C@H]2O[C@@H](CO[Si](c3ccccc3)(c3ccccc3)C(C)(C)C)[C@H](OC(C)=O)[C@@H](OC(C)=O)[C@@H]2OC(C)=O)[C@@H]2[C@@](C)(O)[C@@H](OC(=O)/C=C/c3ccccc3)C[C@]12O`, the IC50 (A549) was > 50 µM, the IC50 (HEK293) was > 50 µM and the IC50 (MCF7) was > 50 µM. The IC50 [1] was > 50 µM, the IC50 (KB) was > 50 µM and the IC50 (P388) was 6.11 µM. For the same molecule, the IC50 (HT-29) was 37.2 µM.
With `COC(=O)C1=CO[C@@H](O[C@H]2O[C@@H](COC(C)=O)[C@H](OC(C)=O)[C@@H](OC(C)=O)[C@@H]2OC(C)=O)[C@@H]2[C@@](C)(OC(C)=O)[C@@H](OC(=O)/C=C/c3ccccc3)C[C@]12O` the IC50 (A549) was > 50 µM, the IC50 (HEK293) was 45 µM and the IC50 (MCF7) was > 50 µM. The IC50 [1] was > 50 µM, the IC50 (KB) was > 50 µM and the IC50 (P388) was > 50 µM. For the same molecule, the IC50 (HT-29) was > 50 µM.
In the case of `COC(=O)C1=CO[C@@H](O[C@H]2O[C@@H](CO[Si](c3ccccc3)(c3ccccc3)C(C)(C)C)[C@H](OC(C)=O)[C@@H](OC(C)=O)[C@@H]2OC(C)=O)[C@@H]2[C@@](C)(O)[C@@H](OC(C)=O)C[C@]12O`, the IC50 (A549) is reported as 8.2 µM, the IC50 (HEK293) is reported as 7.4 µM and the IC50 (MCF7) is reported as 9.01 µM. The IC50 [1] was 9.19 µM, the IC50 (KB) was 14.7 µM and the IC50 (P388) was 3.67 µM. For the same molecule, the IC50 (HT-29) was 35 µM.
In the case of `COC(=O)C1=CO[C@@H](O[C@H]2O[C@@H](COC(C)=O)[C@H](OC(C)=O)[C@@H](OC(C)=O)[C@@H]2OC(C)=O)[C@@H]2[C@@](C)(O)[C@@H](OC(=O)/C=C/c3ccccc3)C[C@]12O`, the IC50 (A549) is reported as > 50 µM, the IC50 (HEK293) is reported as > 50 µM and the IC50 (MCF7) is reported as > 50 µM. For the same molecule, the IC50 [1] was > 50 µM, the IC50 (KB) was > 50 µM and the IC50 (P388) was > 50 µM. The IC50 (HT-29) was > 50 µM.
`Cc1c2ccncc2c(C)c2c1[nH]c1ccccc12` [ELLIPTECINE] showed an IC50 (A549) of 1.96 µM, an IC50 (HEK293) of 1.9 µM and an IC50 (MCF7) of 1.99 µM. The IC50 [1] was 2.02 µM, the IC50 (KB) was 2.15 µM and the IC50 (P388) was 1.84 µM. It also gave an IC50 (HT-29) of 2 µM.
